Assay results from a melting point compilation (Tetko et al.; mined from patent text by program, amines drawn as free bases though some values may be those of a salt).

Point of comparison: `COCCCNCc1noc([C@H](CCCC2CCCCC2)CC(=O)NO)n1`, melting point 60 °C. Against it:
- CCCc1ccc(S(=O)(=O)Nc2ccc3nc(C)cnc3c2)cc1 — higher, 136 °C
- CN(C(=O)N(C)n1cnc2ccccc2c1=O)c1ccc(Cl)cc1 — higher, 97 to 120 °C
- OCc1c(CO)c2sc3ccccc3n2c1-c1ccc(F)cc1 — higher, 155 to 156 °C
- CCOC(=O)CSc1nc(Cl)cc(Nc2cccc(C)c2C)n1 — higher, 88 to 93 °C
- COc1ccc(C2(C)Cc3cc(OCC(=O)O)c(Cl)c(Cl)c3C2=O)cc1 (configuration not stated) — higher, 173 to 175 °C
- COC(=O)c1ccc2oc3c(c(=O)c2c1)CCC3=Cc1cc(OC)c(OC)cc1OC — higher, 221 to 224 °C
- CC(C)Cc1nn(C)c(=O)c2cn(Cc3cccc4ccccc34)cc12 — higher, 110 to 112 °C
- Cc1cc(C)nc(NC(=O)NS(=O)(=O)c2ccccc2OCCO)n1 — higher, 183 to 190 °C
- CCOC(=O)c1ccccc1N(CC(=O)N(C)c1ccccc1)C(=O)CN1C(=O)c2ccccc2C1=O — higher, 202 °C
- O=C(N[C@H]1CC[C@H](CCN2CCC(c3cccc4c3CCO4)CC2)CC1)c1ccc(Cl)cc1 — higher, 224 °C
- CCOC(=O)C(NC(=O)CSC)C(=O)OCC — lower, 56 to 58 °C
- Cc1ccsc1C(O)CCN(C)C (configuration not stated) — lower, 41.5 to 42.5 °C
- O=C(CC1CCCC1)c1c(-c2ccc3c(Br)c(OCc4nnn[nH]4)ccc3c2)oc2ccccc12 — higher, 186 to 187 °C
- CC1CCc2nc3c(N)nc4ccccc4c3n2N1 (configuration not stated) — higher, 241 to 243 °C
- CC(C)(C)NC(=O)c1ccc(-c2cccc3cncn23)cc1 — higher, 128 to 131 °C
- Cc1cc2c(-c3ccccc3)c(COS(C)(=O)=O)n(C)c(=O)c2cc1C — higher, 150 to 151 °C
- COc1ccc(C=CC(=O)c2c(OC)cc(OC)cc2OC2OC(CO)C(O)C(O)C2NC(C)=O)cc1 (configuration not stated) — higher, 197 to 200 °C
- CCOC(=O)c1ccc(C2=NOCCS2)cc1 — higher, 69 to 70 °C
- CS(=O)(=O)c1ccc(CN(C2CCOCC2)S(=O)(=O)c2ccc(Cl)cc2)cc1 — higher, 158 to 160 °C
- CCOc1n[nH]c(=O)n1C — higher, 126 °C
- CCCc1nn(-c2ccc(C(F)(F)F)cn2)cc1CCCCOc1nn(C)cc1CC(=O)O — higher, 95 to 97 °C
- C=CCOC(=O)[C@H](Cc1ccccc1)NC(=O)C(F)(F)F — lower, 44 to 45 °C
- O=C(Cc1ccc(Cl)c(Cl)c1)N1CCC2(CC1CN1CCCC1)SCCS2 (configuration not stated) — higher, 119 to 120 °C
- Oc1ccc(Cc2noc3cc(O)ccc23)cc1 — higher, 178 °C
- CCCc1nc2c(N)nc3ccccc3c2n1OCc1ccccc1 — higher, 164 to 166 °C
- CCCC(CCNC(=O)CC#N)NC(=O)CC#N (configuration not stated) — higher, 141 °C
- CC(=O)N1CCc2ccc(C(=O)NO)cc2C1 — higher, 177 to 181 °C
- Cc1c(OC(C)(C)C(=O)O)ccc(OCCCC#Cc2ccc(OC(F)(F)F)cc2)c1F — higher, 116 to 118 °C
- Cc1ccc(C2OC(CO)C(O)C(O)C2O)cc1Cc1ccc(-c2ccc(F)cc2)s1 (configuration not stated) — higher, 106 to 107 °C
- Cc1cc(C)nc(OC(C(=O)O)C(O/C=C/Cc2ccccc2)(c2ccccc2)c2ccccc2)n1 (configuration not stated) — higher, 128 to 133 °C
- Cc1nc(-c2ccccc2)nc(-c2cccc([N+](=O)[O-])c2)c1C(=O)OCCO — higher, 84 to 86 °C
- Fc1cccc(-c2nc(-c3ccccn3)no2)c1F — higher, 120 to 121 °C
- O=C(CCCCC(=O)N1CCN(c2cnccn2)CC1)c1ccc(Cl)cc1 — higher, 138 to 140 °C
- O=C(C[C@@H](O)C(=O)O)c1ccccc1 — higher, 128 to 131 °C
- Cc1c(C#N)oc2c(-c3ccc(F)cc3)c(-c3ccc(S(N)(=O)=O)cc3)nn12 — higher, 231 to 232 °C
- Oc1ccc(CNc2n[nH]c3ncnc(Nc4cccc(Cl)c4)c23)cc1Cl — higher, 220 °C
- CCCC#Cc1cnc(-c2ccc(C(F)(F)F)cc2)nc1 — higher, 140 °C
- CC(=O)OCc1nnc(-c2ccc3occ(-c4cccc(OC(F)(F)F)c4)c3c2)o1 — higher, 93 to 94 °C
- CCCCCC/C=C/[C@@H](O)[C@H](CO)N=[N+]=[N-] — lower, 29 to 30 °C
- O=C1CCC(c2ccc3c(c2)CC(NC(=O)Nc2ccccc2)C3)=NN1 (configuration not stated) — higher, 249 to 251 °C
- Cc1ccccc1S(=O)(=O)NC(=O)Nc1cc(C)c(S(=O)(=O)C[N+](=O)[O-])c(C)c1 — higher, 194 to 196 °C
- CCCCCS(=O)(=O)NC(=O)CCc1ccc(OCCOC)cc1Oc1ncc(Cl)cc1Cl — higher, 92.2 to 93.6 °C
- O=C(Nc1cc(C(F)(F)F)cc(C(F)(F)F)c1)C1C(=O)C2CCC(C2)C1=O (configuration not stated) — higher, 88 to 90 °C
- CCc1nc2c(C)cc(C)nc2n1Cc1ccc(C(=O)c2ccccc2)cc1 — higher, 98 °C
- CC(=O)OC/C=C/c1ccc(-c2ccccc2C)cc1 — lower, 54 to 56 °C
- CC(=O)N[C@@H](C)c1ccc(C(=O)O)cc1 — higher, 186 to 190 °C
- CC(=O)Nc1scc(C(C)(C)C)c1C(N)=O — higher, 251 °C
- O=C1CCCN1C(=O)NCCn1cccn1 — higher, 62.5 to 63.5 °C
- CC(C)(C(=O)c1ccccc1)n1cncn1 — higher, 134 to 135 °C
- CCCCCCCCCCS(=O)(=O)c1ccc(O)c(C(=O)Nc2ccc(C(F)(F)F)cc2)c1 — higher, 155 to 157 °C
- CC1(N2C(=O)c3cccc([N+](=O)[O-])c3C2=O)C=CC(OC(F)(F)C(F)C(F)(F)F)=CC1 (configuration not stated) — higher, 121 °C
- CN(C)Cc1nc(CSCCNC(=C[N+](=O)[O-])NC2CC2)cs1 — higher, 128 to 132 °C
- Cc1c(Br)c2ccccn2c1C(=O)c1ccc(N)c(C(=O)O)c1 — higher, 230 °C
- Cc1nnnn1-c1ccc(/C(=C\C2CCCC2)C(=O)O)cc1F — higher, 182 to 185 °C
- CCOC(=O)c1ccc2c(c1)C(c1ccc(O)cc1)(c1ccc(O)cc1)c1ccccc1-2 — higher, 280 °C
- N#CSc1cnn(-c2c(Cl)cc(C(F)(F)F)cc2Cl)c1N — higher, 137 °C
- O=C(O)c1ccc(OCCCON=Cc2cn(Cc3ccccc3)c3ccccc23)c(-c2ccc(C(F)(F)F)cc2)c1 — higher, 193 to 194 °C
- CS(=O)(=O)Nc1ccc(C(N)=NO)cc1Oc1ccc(F)cc1F — higher, 174 to 175 °C
- N#CC(C#N)c1cccc(Br)c1 — higher, 97 to 99 °C
- COc1cc(C(=O)c2nc(-c3ccc[nH]3)c3ccccn23)ccc1N — higher, 136 °C
- COc1cc(C(=O)N2CCN(C(=O)c3cc(OC)c(OC)c(OC)c3)C(CNC(=O)OC(C)C)C2)cc(OC)c1OC (configuration not stated) — higher, 140 °C
- COc1cc(C(=O)c2ccc(C(F)(F)F)cc2)ccc1OCc1ccccc1 — higher, 101 °C
- CCNC(=O)c1sc(C)cc1[Si](C)(C)C — higher, 112 to 115 °C
- CC1(C)Cc2cc(OCCO)c3c(c2C(c2ccccc2)=N1)CC(C)(C)O3 — higher, 90 to 92 °C
- O=S(=O)(O)c1ccc(Nc2ncnc3ccc(Cl)cc23)cc1 — higher, > 300 °C
- CN(CC(O)CO)C(=O)c1c(I)c(C#N)c(I)c(C(=O)NCC(O)CO)c1I (configuration not stated) — higher, 215 °C
- Cc1nc2c(OCc3c(Cl)ccc(S(=O)(=O)N4CCC[C@H]4C(=O)NCCCNC(=O)c4ccc(C(N)=NO)cc4)c3Cl)cccn2c1Cl — higher, 155 °C
- CC1(C)NCC(=O)N1CC(N)=O — higher, 144 to 146 °C
- O=C(O)CCc1c(C(=O)O)[nH]c2cc(I)cc(I)c12 — higher, 280 to 282 °C
- Cc1nc2c(N)nc3ccccc3c2n1CCOC/C=C/c1ccccc1 — higher, 112 °C
- CC(CO)Nc1cc(Oc2nn(C)c(C(F)(F)F)c2Cl)ccc1N (configuration not stated) — higher, 110 to 112 °C
